Source: US8071531B2, “Flavor and fragrance composition” (Takasgo International Corporation, priority 2006, dated 2011)

Assay: Oral sensory evaluation of an aqueous solution by seven expert panelists
Type: in vivo
Protocol: Oral evaluation of an aqueous solution of (1R,2R,4R)-1-(2-hydroxy-4-methylcyclohexyl)ethanone obtained in Synthesis Example 1 was carried out by seven expert panelists.

SMILES: CC(=O)[C@@H]1CC[C@@H](C)C[C@H]1O [(1R,2R,4R)-1-(2-hydroxy-4-methylcyclohexyl)ethanone]
- appearance of refreshing feeling and taste (aqueous solution, oral evaluation): relatively rapid with clear refreshing feeling without unpleasant taste
- Cool and refreshing feeling of the aqueous solution, equivalent concentration of menthol (at a concentration of 50 ppm in aqueous solution): 10 ppm
